# Patent publication US20080261932A1, “METHODS AND COMPOSITIONS FOR THE PREVENTION AND/OR TREATMENT OF AN EX[…] ASTHMA” (Chiesi Farmaceutici S.p.A., priority 2007, published 2008)
# Experiment: Tolerability of high, cumulative doses in asthmatic patients on maintenance treatment with the combination (double blind clinical comparison study)
# Settings: 10 puffs cumulative dose in addition to morning maintenance dose (2 puffs), assessed over 12 hours after dosing, vs placebo / comparator
# Protocol: A study is performed to evaluate the tolerability of high, cumulative doses of the combination formoterol/beclometasone dipropionate or formoterol compared to a placebo when administered in asthmatic patients on regular treatment with the combination at the maximum recommended daily dose (6 microgram of formoterol/100 microgram beclometasone dipropionate, 2 puffs bid.: corresponding to a total daily dose of 24 microgram of formoterol and of 400 microgram of beclometasone dipropionate). The study is a double blind clinical comparison study of ten puffs of the pressurized metered dose inhaler solution formulation of the combination of Example 1 (formoterol 6 microgram+beclometasone dipropionate 100 microgram) or formoterol (6 microgram) or placebo during the maintenance treatment of asthma with 2 puffs bid. of the combination formoterol/beclometasone dipropionate of Example 1.
# Cumulative doses (10 puffs) are administered on 3 separated days in addition to the morning dose maintenance (2 puffs). The primary endpoint is serum potassium, assessed over a 12 hours period after the cumulative doses.
compound,measurement,setting,value
"COc1ccc(CC(C)NCC(O)c2ccc(O)c(NC=O)c2)cc1 (racemic) [Formoterol, (±) N-[2-hydroxy-5-(1-hydroxy-2-((2-(4-methoxyphenyl)-1-methylethyl)amino)ethyl)phenyl]formamide]",serum potassium level,,significantly greater decrease in serum potassium level than the combination or placebo
same,serum potassium level,listed as formoterol,significantly greater decrease in serum potassium level than the either the combination or the placebo
